Data reported in US5026836A, “6-sulfenamide, 6-sulfinamide and 6-sulfonamide purines, purine nucleosides, purine nucleotides, pharmaceutical compositions, and processes of making” (priority 1988, dated 1991).
Entries after “also recorded” stand apart in the source; their conditions may differ. Where two headings read alike, the source gives them in different places.

Legend:
L1210 cells = assay: Life span of BDF1 mice inoculated ip with 10^6 L1210 leukemia cells; type: in vivo, mouse
[1] = tested on: L1210/6MP, 6TG, 6TGR cells; assay: L1210/6MP, 6TG, 6TGR cells surviving treatment; type: in vivo, mouse; conditions: for RCP (Residual Cell Population): L1210/6MP,6TG
Procedure: In Example G Compound 19 was tested against both L1210 cells and L1210 cells which were resistant to 6-Mercaptopurine, 6-Thioguanine and 6-Thioguanosine. […] As was noted above, drugs in the 6-Mercaptopurine family are presently among the drugs of choice for treatment of leukemia.

L1210/Compound 18 cells = assay: Compound 18 resistant L1210 cells surviving treatment; type: in vivo, mouse
Procedure: In Examples G through K Compound 19 was tested against L1210 cell lines which had developed resistance to other known cancer chemotherapeutic agents.
In Example K, the results of which are shown in Table 11 below, Compound 19 was tested against drug resistant cell lines developed against Compound 18. […]

[2] = tested on: drug resistant cell lines; assay: Generation of drug resistant cell lines
[3] = ip 37 mg/kg/inj, bid days 1,3,5,7
[4] = ip 62 mg/kg/inj, bid days 1,4,7
[5] = ip 104 mg/kg/inj, qd days 1,4,7
[6] = ip 173 mg/kg/inj, qd days 1,4,7
[7] = listed as 2-amino-9-β-D-ribofuranosyl-9H-purine-6-sulfinamide

Nc1nc([S+](N)[O-])c2ncn([C@@H]3O[C@H](CO)[C@@H](O)[C@H]3O)c2n1 (mixture of isomers) [Compound 19, 2-amino-9-β-D-ribofuranosyl-9H-purine-6-sulfinamide]
Increased life span (L1210 cells; 37 mg/kg/inj injected, qd days 1,3,5,7): 74% | Increased life span (L1210 cells; 62 mg/kg/inj injected, qd days 1,3,5,7): 123% | Increased life span (L1210 cells; 104 mg/kg/inj injected, qd days 1,3,5,7): 136% | Increased life span (L1210 cells; 173 mg/kg/inj injected, qd days 1,3,5,7): 189% | dose at which significant activity is indicated (L1210 cells; delivered only once on day 1, ip): about 37 mg per kg | T/C (%) (L1210 cells; ip 13 mg/kg, qd day 1): 106% | T/C (%) (L1210 cells; ip 22 mg/kg, qd day 1): 106% | Life span (% T/C) (L1210 cells; ip 22 mg/kg/inj, bid days 1,3,5,7): 193% | Life span (% T/C) (L1210 cells; ip 22 mg/kg/inj, bid days 1,4,7): 161% | Life span (% T/C) (L1210 cells; ip 22 mg/kg/inj, bid days 1-7): 200% | T/C (%) (L1210 cells; ip 37 mg/kg, qd day 1): 128% | % ILS (L1210 cells; [3]): 79% | Life span (% T/C) (L1210 cells; [3]): 236% | Life span (% T/C) (L1210 cells; ip 37 mg/kg/inj, bid days 1,4,7): 216% | Life span (% T/C) (L1210 cells; ip 37 mg/kg/inj, bid days 1-7): 233% | Life span (% T/C) (L1210 cells; ip 37 mg/kg/inj, qd days 1,3,5,7): 174% | Increased life span (L1210 cells; ip 37 mg/kg/inj, qd days 1,4,7): 54% | Life span (% T/C) (L1210 cells; ip 37 mg/kg/inj, qd days 1,4,7): 154% | Life span (% T/C) (L1210 cells; ip 37 mg/kg/inj, qd days 1-7): 213% | T/C (%) (L1210 cells; ip 62 mg/kg, bid day 1): 184% | T/C (%) (L1210 cells; ip 62 mg/kg, qd day 1): 135% | T/C (%) (L1210 cells; ip 62 mg/kg, qid day 1): 194% | T/C (%) (L1210 cells; ip 62 mg/kg, tid day 1): 183% | Life span (% T/C) (L1210 cells; ip 62 mg/kg/inj, bid days 1,3,5,7): 285% | % ILS (L1210 cells; [4]): 88% | Life span (% T/C) (L1210 cells; [4]): 249% | long term survivors (L1210 cells; ip 62 mg/kg/inj, bid days 1-7): 2 | Life span (% T/C) (L1210 cells; ip 62 mg/kg/inj, bid days 1-7, 2 long term survivors not included): 361% | Life span (% T/C) (L1210 cells; ip 62 mg/kg/inj, qd days 1,3,5,7): 223% | Increased life span (L1210 cells; ip 62 mg/kg/inj, qd days 1,4,7): 93% | Life span (% T/C) (L1210 cells; ip 62 mg/kg/inj, qd days 1,4,7): 193% | Life span (% T/C) (L1210 cells; ip 62 mg/kg/inj, qd days 1-7): 239% | T/C (%) (L1210 cells; ip 104 mg/kg, qd day 1): 151% | Life span (% T/C) (L1210 cells; ip 104 mg/kg/inj, bid days 1,4,7, 1 toxic death not included): 311% | Life span (% T/C) (L1210 cells; ip 104 mg/kg/inj, qd days 1,3,5,7): 236% | Increased life span (L1210 cells; [5]): 130% | Life span (% T/C) (L1210 cells; [5]): 230% | long term survivors (L1210 cells; ip 104 mg/kg/inj, qd days 1-7): 1 | Life span (% T/C) (L1210 cells; ip 104 mg/kg/inj, qd days 1-7, 1 long term survivor not included): 307% | T/C (%) (L1210 cells; ip 173 mg/kg, qd day 1): 167% | Life span (% T/C) (L1210 cells; ip 173 mg/kg/inj, qd days 1,3,5,7): 289% | Increased life span (L1210 cells; [6]): 169% | Life span (% T/C) (L1210 cells; [6]): 269% | in vivo antitumor activity (L1210 cells; mouse, in vivo): good in vivo activity | oral activity (words) (L1210 cells): Oral activity is seen | Activity against I.P. L1210 cells, T/C (L1210 cells; oral 37 mg/kg, bid days 1,3,5,7): 148.6% | Activity against I.P. L1210 cells, T/C (L1210 cells; oral 37 mg/kg, qd days 1,4,7): 144.6% | % ILS (L1210 cells; oral 37 mg/kg/inj, bid days 1,3,5,7): 49% | Increased life span (L1210 cells; oral 37 mg/kg/inj, qd days 1,4,7): 45% | Activity against I.P. L1210 cells, T/C (L1210 cells; oral 62 mg/kg, bid days 1,4,7): 140.0% | Activity against I.P. L1210 cells, T/C (L1210 cells; oral 62 mg/kg, qd days 1,4,7): 144.6% | % ILS (L1210 cells; oral 62 mg/kg/inj, bid days 1,4,7): 40% | Increased life span (L1210 cells; oral 62 mg/kg/inj, qd days 1,4,7): 45% | Activity against I.P. L1210 cells, T/C (L1210 cells; oral 104 mg/kg, qd days 1,4,7): 138.5% | Increased life span (L1210 cells; oral 104 mg/kg/inj, qd days 1,4,7): 38% | Activity against I.P. L1210 cells, T/C (L1210 cells; oral 173 mg/kg, qd days 1,4,7): 138.5% | Increased life span (L1210 cells; oral 173 mg/kg/inj, qd days 1,4,7): 38% | oral activity (words) (L1210 cells; [7]): active in both an oral and an injectable form; also recorded: orally active | % ILS (L1210 cells; single agent day 1, Compound 19 173 mg/kg, Compound 18 22 mg/kg (Table 12)): 88% | % ILS (L1210 cells; single agent day 1, Compound 19 173 mg/kg, Tiazofurin 22 mg/kg (Table 13)): 81% | RCP (Residual Cell Population) [1, 3]: .28 | RCP (Residual Cell Population) [1, 4]: .09 | L1210/6MP, 6TG, 6TGR cells surviving (% of day zero inoculum) ([1]; ip 62 mg/kg, bid day 1): 15.9% | L1210/6MP, 6TG, 6TGR cells surviving (% of day zero inoculum) ([1]; ip 62 mg/kg, qd day 1): 15.9% | L1210/6MP, 6TG, 6TGR cells surviving (% of day zero inoculum) ([1]; ip 62 mg/kg, tid day 1): 15.9% | L1210/6MP, 6TG, 6TGR cells surviving (% of day zero inoculum) ([1]; ip 104 mg/kg, qd day 1): 54.5% | L1210/6MP, 6TG, 6TGR cells surviving (% of day zero inoculum) ([1]; ip 173 mg/kg, qd day 1): 4.6% | L1210/Compound 18 cells surviving (% of day zero inoculum) (L1210/Compound 18 cells; ip 62 mg/kg/day, bid day 1): 27.4% | L1210/Compound 18 cells surviving (% of day zero inoculum) (L1210/Compound 18 cells; ip 62 mg/kg/day, qd day 1): 100.0% | L1210/Compound 18 cells surviving (% of day zero inoculum) (L1210/Compound 18 cells; ip 104 mg/kg/day, qd day 1): 17.9% | L1210/Compound 18 cells surviving (% of day zero inoculum) (L1210/Compound 18 cells; ip 173 mg/kg/day, qd day 1): 7.5% | activity against Compound 18 resistant L1210 (L1210/Compound 18 cells; mouse, in vivo): effective against those L1210 cell lines which have developed resistance against Compound 18; also recorded: active against cells which developed resistance to Compound 18 | generation of drug resistant cell lines (words) [2]: has not been found to generate resistant cell lines | generation of drug resistant cell lines (words) [2, 7]: lack of generating resistant cell lines; also recorded: lack of resistance cell generation
